Data as given in ChEMBL document CHEMBL1155612, “Lyngbyabellin B, a toxic and antifungal secondary metabolite from the marine cyanobacterium Lyngbya majuscula” (J Nat Prod, 2000).
The source made the active and inactive calls. The rule behind the calls is not given here.

Assays:
Staphylococcus aureus = test: Antimicrobial activity against Staphylococcus aureus ATCC 12600 by disk agar plate assay; format: functional, organism-based
Candida albicans [1] = test: Antimicrobial activity against Candida albicans ATCC 14053 at 100 ug/disk by disk agar plate assay; format: functional; conditions: read-out: IZ
Artemia = test: Toxicity against brine shrimp after 24 hrs; format: organism-based; conditions: in vivo
[2] = test system: Salmonella enterica subsp. enterica; test: Antimicrobial activity against Salmonella choleraesuis subsp. choleraesuis ATCC 14028 by disk agar plate assay; format: functional, organism-based
Candida albicans [3] = test: Antimicrobial activity against Candida albicans ATCC 14053 at 10 ug/disk by disk agar plate assay; format: functional, organism-based
Escherichia coli = test: Antimicrobial activity against Escherichia coli ATCC 11775 by disk agar plate assay; format: functional, organism-based
Pseudomonas aeruginosa = test: Antimicrobial activity against Pseudomonas aeruginosa ATCC 10145 by disk agar plate assay; format: functional, organism-based
Bacillus subtilis = test: Antimicrobial activity against Bacillus subtilis ATCC 6051 by disk agar plate assay; format: functional, organism-based

In the case of `CC(C)[C@@H]1NC(=O)CNC(=O)[C@@H]2CSC(=N2)[C@H](C(C)(C)O)OC(=O)C(C)(C)[C@H](CCCC(C)(Cl)Cl)OC(=O)c2csc1n2` [LYNGBYABELLIN B], the Activity (Staphylococcus aureus) is reported as “inactive”, the zone of inhibition at 100 µg/disc (Candida albicans [1]) is reported as 10.5 mm and the LD50 (Artemia) is reported as 3 ppm. The Activity [2] was “inactive”, the Activity (Candida albicans [3]) was “Active” and the Activity (Escherichia coli) was “inactive”. For the same compound, the Activity (Pseudomonas aeruginosa) was “inactive” and the Activity (Bacillus subtilis) was “inactive”.
